Like-named read-outs stand apart in the source and are kept apart here.

For one data set, the system named is IBV. In words: microbe, parasite or virus in culture. The class given is cell-based, Avian Infectious Bronchitis virus. The following applies: for IC50: read-out: IBV infection inhibition concentration IC50; for SI (selectivity index), IBV: CC50/IC50.
A short description of the next data set: in vitro. The following applies: monkey.
The subject of another data set is BRV. In words: BRV infection inhibition in MDBK cells (RT-qPCR). The class given is cell-based, Bovine Rotavirus. The following applies: for SI (selectivity index), BRV: CC50/IC50; for IC50: Rotavirus A, 96 h, MDBK cells, 200 TCID50/well BRV, after 4 days, read-out: BRV infection inhibition concentration IC50. As to the method:
The next day, BRV of 200 TCID50/well and inosine, xanthosine and guanosine in the dialdehyde and acyclic diol forms were treated to the cells simultaneously, and after 4 days, using commercialized Viral gene (DNA/RNA) extraction kit (iNtRON, 101410754), RNA was isolated.
For the isolated RNA, using BRV-specific primers (F-[…] , R-[…] ) and realtime RT-qPCR experimental method (95° C., 10 minutes 1 cycle, 95° C., 15 seconds, 60° C., 15 seconds, 72° C., 20 seconds 40 cycles), the antiviral efficacy of the materials was confirmed.
On the technique in general: In qPCR the cycle at which signal appears reflects the starting amount.

A further data set relates to NDV. In words: microbe, parasite or virus in culture. The class given is cell-based, Avian Newcastle Disease virus. The following applies: for SI (selectivity index), NDV: CC50/IC50; for IC50: read-out: NDV infection inhibition concentration IC50.
Data set [1] relates to PRRSV (NA type, VR-2332 strain). In words: PRRSV infection inhibition in Marc-145 cells (immunofluorescence staining). The class given is cell-based, Porcine Reproductive and Respiratory Syndrome virus. Conditions: for SI (selectivity index), PRRSV: CC50/IC50; for IC50: Porcine reproductive and respiratory syndrome virus, MARC145, 72 h, Marc-145 cells, 100 TCID50/ml PRRSV, three days after treatment, read-out: PRRSV infection inhibition concentration IC50.

For data set [2], the system named is Swine Influenza virus (SIV). In words: organism not typed. The format is cell-based. Conditions: for SI (selectivity index), SIV: CC50/IC50; for IC50: MDCK, 96 h, read-out: SIV infection inhibition concentration IC50.
Data set [3] in a line: Cytotoxicity (WST-1 / DAPI staining), PRRSV test cells. Conditions: monkey, Marc-145 cells (monkey kidney).
A further data set has as its system Vero cell line. Conditions: monkey.
The test system of data set [4] is PEDV (G1a type, SM98 strain). In words: PEDV infection inhibition in Vero cells (PEDV detection kit on isolated RNA). The following applies: for SI (selectivity index), PEDV: CC50/IC50; for IC50: Porcine epidemic diarrhea virus, 48 h, Vero cells, 200 TCID50/ml PEDV, after 2 days, read-out: PEDV infection inhibition concentration IC50. The format is cell-based, Porcine Epidemic Diarrhea virus. The procedure: The next day, PEDV (G1a type, SM98 strain) of 200 TCID50/ml and inosine, xanthosine and guanosine in the dialdehyde and acyclic diol forms were treated to the cells simultaneously, and after 2 days, using commercialized Viral gene (DNA/RNA) extraction kit (iNtRON, 101410754), RNA was isolated. For the isolated RNA, using commercialized PEDV detection kit (Mediandiagnostics, NS-PED-31), the antiviral efficacy of the materials was verified.

Data set [5] can be described thus: Cytotoxicity, PK15 cell test. The following applies: pig, PK15 cells.
The next data set relates to PCV2. In words: PCV2 infection inhibition in PK15 cells (qPCR). The class given is cell-based, Porcine Circovirus Type 2. Conditions: for SI (selectivity index), PCV2: CC50/IC50; for IC50: Porcine circovirus 2, PK-15, 96 h, PK15 cells, 200 TCID50/well PCV2, after 4 days, read-out: PCV2 infection inhibition concentration IC50. The procedure:
For the isolated DNA, using PCV2-specific primers (F-[…] , R-[…] ) and realtime RT-qPCR experimental method (95° C., 30 seconds 1 cycle, 95° C., 20 seconds, 56° C., 60 seconds 40 cycles), the antiviral efficacy of the materials was verified.

A further data set deals with CPV. In words: CPV infection inhibition in MDCK cells (qPCR). The class given is cell-based, Canine Parvovirus. Conditions: for SI (selectivity index), CPV: CC50/IC50; for IC50: 96 h, MDCK cells, 200 TCID50/well CPV, after 4 days, read-out: CPV infection inhibition concentration IC50 (Table 10). The procedure:
For the isolated DNA, using CPV-specific primers (F-[…] , R-[…] ) and realtime RT-qPCR experimental method (95° C., 5 minutes 1 cycle, 95° C., 10 seconds, 60° C., 30 seconds, 40 cycles), the antiviral efficacy of the materials was confirmed.

Data set [6] in a line: Cytotoxicity, MDBK cell tests. The following applies: bovine, MDBK cells.
The subject of another data set is PRV. In words: microbe, parasite or virus in culture. The class given is cell-based, Porcine Rotavirus. Conditions: for SI (selectivity index), PRV: CC50/IC50; for IC50: Rotavirus C, Vero, 72 h, read-out: PRV infection inhibition concentration IC50.
Data set [7] is described as follows: Cytotoxicity, MDCK cell tests. The following applies: dog, MDCK cells.
The test system of a further data set is MDCK cell line. In words: Cytotoxicity, MDCK cell tests. Conditions: read-out: CC50 (Table 10, CPV); cytotoxicity.
A further data set relates to BVDV. In words: BVDV infection inhibition in MDBK cells (RT-qPCR). The class given is cell-based, Bovine Viral Diarrhea virus. The procedure: The next day, BVDV of 200 TCID50/well and inosine, xanthosine and guanosine in the dialdehyde and acyclic diol forms were treated to the cells simultaneously, and after 4 days, using commercialized Viral gene (DNA/RNA) extraction kit (iNtRON, 101410754), RNA was isolated.
For the isolated RNA, using BVDV-specific primers (F-[…] , R-[…] ) and realtime RT-qPCR experimental method (94° C., 10 minutes 1 cycle, 94° C., 10 seconds, 53° C., 20 seconds, 72° C., 30 seconds 35 cycles), the antiviral efficacy of the materials was verified.

The subject of another data set is MDBK cell line. In words: Cytotoxicity, MDBK cell tests. The following applies: read-out: CC50 (Table 9, BRV); cytotoxicity.
The mark [8] stands for this setting: avian paramyxovirus 1, Vero, 72 h.

`Nc1nc2c(ncn2[C@@H](CO)OC(CO)CO)c(=O)[nH]1` [Acyclic diol-guanosine, acyclic diol form of guanosine]: the IC50 with IBV (Avian coronavirus, Vero, 96 h) was found to be 1.77 mM; in the data set on BRV, 1.76 mM; in the data set with NDV (setting [8]), 6.71 mM; in data set [1], 0.458 mM; in data set [2], 4.82 mM; in data set [4] it was 1.78 mM. Further, the IC50 is 2.33 mM in the data set on PCV2 and 3.4 mM in the data set with PRV. Also, the “SI (selectivity index), IBV” value in the data set with IBV is above 5.6. Also, the CC50 in “in vitro” was above 10 mM; in data set [3] it was above 8 mM; with Vero cell line, above 10 mM; in [5] it was above 10 mM; in data set [6], above 10 mM; in data set [7], above 10 mM. The “SI (selectivity index), BRV” value in the data set on BRV was above 5.7. Moreover, the “SI (selectivity index), NDV” value with NDV was above 1.5. Besides, the “SI (selectivity index), PRRSV” value in [1] is on record as above 17.5. For the same molecule, the “SI (selectivity index), SIV” value in data set [2] is reported as above 2.1. Also, the “SI (selectivity index), PEDV” value in data set [4] is above 5.6. The “SI (selectivity index), PCV2” value in the data set with PCV2 is above 4.3. Moreover, the inhibition at 8000 µM in the data set on CPV (Canine parvovirus, MDCK, at 8000 μM, read-out: CPV infection inhibition efficacy) came out at 18%. For the same molecule, the “CPV virus titer reduction efficacy” value in the data set with CPV (at 8000 μM) was at least 1 log10. Further, the “SI (selectivity index), PRV” value with PRV was above 2.9.
With `O=c1[nH]cnc2c1ncn2[C@@H](CO)OC(CO)CO` [Acyclic diol-inosine, acyclic diol form of inosine], the IC50 stood at 2.66 mM with IBV (Avian coronavirus, Vero, 96 h); 1.93 mM in the data set on BRV; 4.44 mM with NDV (setting [8]); 0.454 mM in data set [1]; 6.19 mM in data set [2]; 2.77 mM in data set [4]. Besides, the IC50 is 0.776 mM with PCV2, 2.19 mM in the data set on CPV (Canine parvovirus) and 2.83 mM in the data set on PRV. Moreover, the “SI (selectivity index), IBV” value in the data set with IBV is on record as above 3.8. Moreover, the CC50 in “in vitro” was above 10 mM; in [3], above 8 mM; in the data set with Vero cell line, above 10 mM; in [5], above 10 mM; in data set [6], above 10 mM; in the data set with MDCK cell line it was above 10 mM. The same molecule displayed a CC50 in [7] above 10 mM. The “SI (selectivity index), BRV” value with BRV is recorded as above 5.2. The “SI (selectivity index), NDV” value in the data set on NDV is above 2.3. The “SI (selectivity index), PRRSV” value in data set [1] is recorded as above 17.6. Further, in data set [2], the “SI (selectivity index), SIV” value was above 1.6. Also, the “SI (selectivity index), PEDV” value in data set [4] is listed as above 3.6. The “SI (selectivity index), PCV2” value with PCV2 is on record as above 12.9. The “SI (selectivity index), CPV” value with CPV is listed as above 4.6. In the data set with PRV, the “SI (selectivity index), PRV” value is reported as above 3.5.
As for `O=c1[nH]c(=O)c2ncn([C@@H](CO)OC(CO)CO)c2[nH]1` [Acyclic diol-xanthosine, acyclic diol form of xanthosine], the CC50 was above 10 mM in “in vitro”; above 8 mM in data set [3]; above 10 mM in the data set with Vero cell line; above 10 mM in data set [5]; above 10 mM in data set [6]; above 10 mM with MDCK cell line. The molecule further displayed a CC50 in data set [7] above 10 mM. Moreover, the “SI (selectivity index), BRV” value in the data set with BRV is above 6.4. Also, the IC50 with BRV worked out at 1.56 mM; in data set [1] it was 0.4 mM; in [2], 6.69 mM; in [4] it was 2.3 mM; with PCV2, 0.995 mM; with CPV (Canine parvovirus), 2.2 mM. Moreover, the IC50 with PRV is 3.42 mM. Besides, in the data set with NDV (avian paramyxovirus 1, Vero, read-out: NDV infection inhibition efficacy), the inhibition at 8000 µM was 39.4%. The “SI (selectivity index), PRRSV” value in data set [1] is listed as above 20. The “SI (selectivity index), SIV” value in [2] is reported as above 1.5. For the same molecule, the “SI (selectivity index), PEDV” value in [4] is on record as above 4.4. The “SI (selectivity index), PCV2” value with PCV2 was above 10.1. Also, the “SI (selectivity index), CPV” value in the data set on CPV was above 4.6. Also, the “SI (selectivity index), PRV” value in the data set on PRV is listed as above 2.9.
On to `O=C[C@@H](CO)O[C@H](C=O)n1cnc2c(=O)[nH]cnc21` [Dialdehyde-inosine, dialdehyde form of inosine], for which the IC50 in the data set with IBV (Avian coronavirus, Vero, 96 h) is 0.0764 mM; with BVDV (Bovine viral diarrhea virus isolates and strains, 96 h, MDBK cells, 200 TCID50/well BVDV, after 4 days, read-out: BVDV infection inhibition concentration IC50), 0.11 mM; with BRV, 0.107 mM; in the data set on NDV (setting [8]), 0.469 mM; in [1], 0.095 mM; in [2], 0.554 mM. The IC50 in [4] was found to be 0.448 mM; in the data set with PCV2 it was 0.817 mM; in the data set with CPV (Canine parvovirus), 1.69 mM; in the data set on PRV it was 0.0966 mM. Also, the “SI (selectivity index), IBV” value with IBV was above 130. Further, the “SI (selectivity index), BVDV” value with BVDV (CC50/IC50) is above 90.8. Moreover, the CC50 (in the data set “in vitro”; in data set [3]; with Vero cell line; in data set [5]; with MDBK cell line; in [6]) was above 10 mM throughout. Moreover, the CC50 (with MDCK cell line; in data set [7]) was above 10 mM in each case. Further, the “SI (selectivity index), BRV” value with BRV is listed as above 93.8. The “SI (selectivity index), NDV” value in the data set on NDV was above 21.3. Moreover, in [1], the “SI (selectivity index), PRRSV” value was above 105.3. Besides, the “SI (selectivity index), SIV” value in data set [2] is above 18.1. For the same molecule, the “SI (selectivity index), PEDV” value in [4] is given as above 22.3. Also, the “SI (selectivity index), PCV2” value with PCV2 is reported as above 12.2. Besides, in the data set with CPV, the “SI (selectivity index), CPV” value is on record as above 5.9. Moreover, the “SI (selectivity index), PRV” value in the data set on PRV is on record as above 103.5.
For the molecule “dialdehyde form of inosine [Dialdehyde-inosine]”, the IC50 in the data set on IBV (Vero cells, 200 TCID50/well IBV, after 4 days) stood at 0.0764 mM; in the data set on NDV (Vero cells, 200 TCID50/well NDV, after 3 days), 0.469 mM.

For orientation: inhibition means the drop in the measured response relative to a control, in per cent.

The record behind these values is patent publication US20250057849A1, “ANTIVIRAL COMPOSITION COMPRISING NUCLEOSIDE ANALOGUES DERIVED FROM NUCLEIC ACID AND PHARMACEUTICALLY ACCEPTABLE SALT THEREOF” (CJ CheilJedang Corporation, priority 2021, published 2025).
